Results on one compound are retold here after patent publication US8022036B2, “Use of thymosin alpha 1 for the treatment of immunological diseases” (Sigma-Tau Industrie Farmaceutiche Riunite S.p.A., priority 2006, dated 2011).

One assay deals with GM-DCs or FL-DCs. The assay can be described thus: Cytokine production (ELISA) by murine GM-DCs or FL-DCs with Aspergillus conidia. The class given is cell-based, mouse. The note with it: 1-MT added at 2 μM. From the text:
GM-DCs or FL-DCs were obtained from purified CD14+ monocytes from healthy donors or transplanted patients (1 month post-HSCT) cultured in Iscove's modified medium for 7-9 days, in the presence of rGM-CSF (Schering-Plough, Milan, Italy) and rIL-4 (Peprotech, Inalco, Milan, Italy) or FLT3-L (Immunex Corporation, Seattle, Wash.) (Blood. 2004; 103:4232-4239). DC recovery was between 20-30% reduced in cultures from transplanted patients. Murine GM-DCs or FL-DCs were obtained from bone marrow cells for 7-9 days, as described (Blood. 2004; 103:4232-4239). Thymosin alpha 1 and sThymosin alpha 1 were added to the cultures at 20 ng/mL. DCs (>99% CD11c+ consisting of 90-95% CD8-, 5-10% CD8+, and 1-5% B220+ cells) were purified from spleens (spDCs) by magnetic-activated sorting using CD11c MicroBeads and MidiMacs (Miltenyi Biotech). DC populations were further separated into CD8−, CD8+ and B220+ fractions by means of CD8 or B220 MicroBeads (Miltenyi Biotech). DCs were pulsed in serum-free Iscove medium for 24 hours with live unopsonized Aspergillus conidia or Zymosan from Saccharomyces cerevisiae (Sigma) or CpG-ODN 2006 as described.7 Phagocytosis was done as described (Blood. 2004; 103:4232-4239). Photographs were taken using a high Resolution Microscopy Color Camera AxioCam, using the AxioVision Software Rel. 3.1 (Carl Zeiss, Milan, Italy).
(§1) Cytokine content was assessed by enzyme-linked immunosorbent assays (Endogen Human Elisa Kits, R&D Systems and Euroclone, Milan, Italy). AID EliSpot assay kits (Amplimedical, Buttigliera Alta, Turin, Italy) were used on purified splenic CD4+ Tcells cocultured with conidia-pulsed DCs for 5 days to enumerate cytokine-producing cells (Blood. 2003; 102:3807-3814). 1-MT was used at 2 μM.
(B) Cytokine production (ELISA) by GM-DCs or FL-DCs cultured in serum-free medium (1×10^6 cells/mL) with unopsonized Aspergillus conidia (5×10^5/mL) for 24 hours. The IDO inhibitor 1-MT was added at 2 μM. Data are aggregated results from three independent experiments. The detection limits (pg/mL) of the assays were <16 for IL-12p70 and <12 for IL-10.

The next assay has as its system splenic CD4+ T cells. As to the kind of experiment: Th1/T reg priming in vitro of splenic CD4+ T cells by Aspergillus-pulsed DCs (ELISPOT, flow cytometry). The class given is cell-based, mouse. How it is done: IDO expression and functional activity were assessed as described in Nat. Immunol. 2002; 3:1097-1101. Generation, purification and activity of T reg cells Splenic CD4+ T-cells were cocultured with conidia-pulsed DCs for 5 days […] before flow cytometry or ELISPOT assay. 1-MT (Sigma-Aldrich) was used at 2 μM. CD4+CD25+ and CD4+CD25− cells (>90% pure on FACS analysis) were separated by magnetic cell sorting from lung and TLN (J. Immunol. 2006; 176:1712-1723). For T reg cell inhibition, 5×10^4 TLN T reg cells were added to 3×10^5 CD4+CD25− cells, both from transplanted mice, stimulated with 3×10^4 autologous Aspergillus conidia-pulsed spDCs or with or 1.5×10^5 allogeneic spDCs from naïve donor mice for five days before H^3-thymidine labeling. Purified peritoneal CD 11b+Gr−1+PMN (>98% pure on FACS analysis) (2×10^6) were exposed to resting conidia in the presence of 4×10^5 CD4+CD25+ for 60 min for oxidant production or 24 hours for cytokine production (J. Immunol. 2006; 176:1712-1723).
as §1
(A) Frequency of IFN-γ-/IL-10-producing splenic CD4+ T cells activated by Aspergillus-pulsed Thymosin alpha 1-treated GM-DCs or FL-DCs. 1-MT was present in selected cultures. Plates were read with the AID-EliSpot Reader System (Amplimedical). Values are means±SE per 10^6 cells of samples from 3-5 experiments, calculated using replicates of serial twofold dilutions of cells. (*) P<0.05, conidia-exposed versus unexposed cells; (**) P<0.05, thymosin-exposed versus unexposed cells.
(B) Phenotypic analysis of CD4+ cells cultured alone (−) or as in (A). Numbers represent the percentage of double positive cells.

Molecules are shown by their SMILES.

For `Cn1cc(CC(N)C(=O)O)c2ccccc21` (racemic) [1-MT, 1-methyl-DL-tryptophan], the “IL-10 production by DCs in response to Thymosin alpha 1” value with GM-DCs or FL-DCs is listed as “blocked”. For the same compound, the “expansion of Foxp3+CTLA4+CD25+ T cells co-cultured with FL-DCs” value in the assay on splenic CD4+ T cells (1-MT) was “appeared to interfere with the expansion”. Further, in the assay on splenic CD4+ T cells (IDO blockade, 1-MT 2 μM), the IFN-γ-producing cells result is “had no effect” and the “activation of IL-10-producing CD4+ cells” value is recorded as “prevented activation”.
